Assay results reported in publication PMC3443238, “Synthesis and Antiangiogenic Activity of N-Alkylated Levamisole Derivatives” (PLoS ONE, 2012).
Structures can show the parent of a compound that is named as a salt.

Tests used:
[1] = molecular target: T1, bovine kidney tissue non-specific alkaline phosphatase (TNAP) (Bos taurus, UniProt P09487); experiment: Alkaline phosphatase assay (p-nitrophenyl phosphate), bovine kidney enzyme; type: biochemical
T1 construct: alkaline phosphatase (0.01 U/mL) from human placenta or bovine kidneys; from tissue; host or cells: bovine kidneys
T1 sequence (P09487 18-499 limits assumed): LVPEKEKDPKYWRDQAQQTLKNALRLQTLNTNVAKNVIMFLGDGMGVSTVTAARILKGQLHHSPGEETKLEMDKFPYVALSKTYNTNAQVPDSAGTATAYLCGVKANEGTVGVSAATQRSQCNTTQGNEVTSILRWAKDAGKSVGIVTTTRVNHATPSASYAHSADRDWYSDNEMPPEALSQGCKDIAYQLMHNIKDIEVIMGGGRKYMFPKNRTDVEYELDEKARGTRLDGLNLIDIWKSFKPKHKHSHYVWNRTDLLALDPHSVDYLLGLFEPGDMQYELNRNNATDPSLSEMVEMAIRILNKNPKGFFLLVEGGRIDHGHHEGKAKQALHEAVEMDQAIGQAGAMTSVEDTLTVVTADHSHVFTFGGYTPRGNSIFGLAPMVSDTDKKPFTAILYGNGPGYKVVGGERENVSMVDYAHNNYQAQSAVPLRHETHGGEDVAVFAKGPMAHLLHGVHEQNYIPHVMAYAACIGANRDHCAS
Experimental: (§1) The levamisole derivatives were diluted to 2.5, 5 and 10 mM in DMSO. Samples (10 µL) and 90 µL solution of alkaline phosphatase (0.01 U/mL) from human placenta or bovine kidneys diluted in substrate buffer were added to a 96-well microtiter plate and incubated for 35 minutes at room temperature. Hereafter, 100 µL p-nitrophenyl phosphate (2 mg/mL) were added, and the plate was read at 405 nm with background subtraction at 650 nm on a Versamax Elisa reader (Molecular Devices, Sunnyvale, CA, USA) after 24 and 35 min. Results were obtained as the mean of double determinations. The EC50 values were read from the curve at half maximal absorbance.

[2] = tested on: tumor growth; conditions: 12 mg/kg in nude mice; cited from earlier work
[3] = molecular target: T2, human placenta alkaline phosphatase (HPAP) (Homo sapiens, UniProt P05187); experiment: Alkaline phosphatase assay (p-nitrophenyl phosphate), human placenta enzyme; type: biochemical
T2 construct: alkaline phosphatase (0.01 U/mL) from human placenta or bovine kidneys; from tissue; host or cells: human placenta
T2 sequence (P05187 23-506 limits assumed): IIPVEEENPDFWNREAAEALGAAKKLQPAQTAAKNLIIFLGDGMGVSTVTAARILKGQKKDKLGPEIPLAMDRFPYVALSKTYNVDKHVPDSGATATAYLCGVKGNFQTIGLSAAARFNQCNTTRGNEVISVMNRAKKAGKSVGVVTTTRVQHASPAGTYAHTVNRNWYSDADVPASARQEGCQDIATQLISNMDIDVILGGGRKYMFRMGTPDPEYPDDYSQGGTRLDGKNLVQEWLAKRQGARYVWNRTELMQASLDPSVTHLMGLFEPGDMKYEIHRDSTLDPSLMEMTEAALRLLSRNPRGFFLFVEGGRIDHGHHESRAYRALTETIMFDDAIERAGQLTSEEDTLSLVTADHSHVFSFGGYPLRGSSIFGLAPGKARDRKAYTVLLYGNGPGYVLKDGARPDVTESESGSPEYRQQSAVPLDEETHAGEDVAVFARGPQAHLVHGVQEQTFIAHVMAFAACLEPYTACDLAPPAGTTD
Experimental: as §1

[4] = tested on: human umbilical vein endothelial cells (HUVECs) in co-culture with normal human dermal fibroblasts (NHDF); experiment: in vitro angiogenesis assay, HUVEC-NHDF co-culture, CD31 immunostaining; type: cell-based; conditions: 1 mM
Experimental: The antiangiogenic effects of the compounds were determined in a previously developed assay, designed to evaluate the growth and differentiation of human umbilical vein endothelial cells (HUVECs) in co-culture with normal human dermal fibroblasts (NHDF). […] The cluster morphology known from (S)-levamisole, was also observed for tetramisole (2) (Figure 5B and Table 1), p-bromolevamisole (3) (Figure 5C and Table 1), and N-methyllevamisoles (7a, b), with the latter mentioned showing a slightly more pronounced effect (Figure 5E and F, Figure 6 A–D, Table 1). […] Compound 4 (Figure 5D and Table 1), on the other hand, inhibited the capillary network formation to give small cords exclusively, which is reminiscent of the effect of suramin (5) (Figure 5N and Table 1), another well-known angiogenesis inhibitor [44], [51].
Co-culture cell assays were performed according to a method described previously, [44]. Briefly, 10^3 NHDFs were cultured in each well of a 96-well microtiter plate in NHDF standard medium (100 μL, FGM-2 Bullet kit) at 37°C in an atmosphere containing 5% CO2. After 3 days the medium was removed and 10^3 HUVECs were seeded onto the NHDF in TFSM2 medium (135 μL). The samples of the individual compounds were prepared by weight and dissolved in a concentration of […] in DMSO, PBS, or Milli-Q water followed by pH adjustment, and sterile filtration through 0.22 μm filters. Medium, buffer controls or test samples of 15 µL were added to each well containing the HUVEC–NHDF co-culture and were incubated for 3 days. Experiments were repeated 2–4 times with identical results.
HUVEC and fibroblasts were stained with a CD31 antibody according to the method previously described, [44]. Briefly, the cells were washed with PBS, fixed with ethanol, blocked with TTN buffer, incubated with mouse anti-human CD31 diluted 1∶250 in TTN buffer, washed in TTN buffer and incubated with alkaline phosphatase-conjugated goat anti-mouse IgG diluted 1∶1000 in TTN buffer. Bound antibody was subsequently visualised with BCIP/NBT and inspected in an Olympus IX70 microscope and photographed with an Olympus DP12 digital camera (Magnification: 40x). Image analysis was carried out using the program AnalySIS (Soft Imaging Systems, Münster, Germany).

In the case of `c1ccc([C@H]2CN3CCSC3=N2)cc1` [Compound 1, (S)-levamisole hydrochloride, reference compound], the IC50 [1] is given as 600 µM, the tumor growth inhibition [2] is given as “significant tumor growth inhibition” and the IC50 [3] is given as 1100 µM. The Grading [4] was “++ (clusters with area >4%)”, the Morphology [4] was “Clusters” and the “Area % (percent of the area covered by HUVEC as observed by CD31 staining)” value ([4]; medium control 10.2, DMSO 8.4) was 7.5%.
